# Source: US7585503B2, “Method for detecting multi-drug resistance” (priority 2005, dated 2009)
# Columns and labels:
# Format in all cases: cell-based, human
# [1] = system: 2008/C13*5.25 resistant ovarian carcinoma cells; test: Cytotoxicity assay by colony forming ability, resistant cells; details: 25 μM cisplatin with or without 5 mU sialidase, 1 h, about two weeks of growth
# Method: To confirm the sialidase effects on F-DDP internalization and sensitizing the resistant cells to the drug, the resistant cells were tested in cytotoxicity assay to determine colony formation ability with cisplatin treatments in the presence and absence of sialidase. Resistant cells were treated with high concentration of cisplatin (25 μM, an IC-50 about 10 fold higher than that of the sensitive cells) in the absence and presence of 5 mU sialidase (see table 1 in “Experimental procedures”). The colony formation ability of MDR cells was reduced 40-50%, when sialidase concomitant with cisplatin was added to the resistant cells compare to the resistant cells treated with the same amounts of cisplatin in the absence of sialidase. The data, thus, support the sialidase-mediated drug internalization and increasing the cytotoxicity of the drug.
# Colony forming ability assay was performed by seeding 100 cells/ml of sensitive or resistant isotypes per each well/ml in 12 well plates. Cells were cultured with DMEM, 10% FBS overnight. The assay was performed in 4 plates for each of the sensitive or resistant isotypes in the format shown in Table 1 and was repeated three times. 2008 isotype pair were used in the experiment. […]
# [2] = system: 2008 sensitive ovarian carcinoma cells; test: Cytotoxicity assay by colony forming ability, sensitive cells; details: 25 μM cisplatin, 1 h
# Method: Colony forming ability assay was performed by seeding 100 cells/ml of sensitive or resistant isotypes per each well/ml in 12 well plates. Cells were cultured with DMEM, 10% FBS overnight. The assay was performed in 4 plates for each of the sensitive or resistant isotypes in the format shown in Table 1 and was repeated three times. 2008 isotype pair were used in the experiment. Sensitive cells could not tolerate such high concentration of cisplatin, used in the assay, to serve the resistant cells, as the IC-50 was 10 fold higher for resistant cells compare to their parental susceptible phenotype.
# Table 1: Colony forming ability was performed by seeding 100 cells/ml of sensitive or resistant isotypes per each well/ml in 12 well plates. Cells were cultured with DMEM, 10% FBS overnight. The assay was performed in 4 plates for each of the sensitive or resistant isotypes in the above format and was repeated three times for each cell pair. plate 1 (control): DMEM, 10%FBS; plate 2: DMEM containing 25 μM cisplatin; plate 3: DMEM containing 25 μM cisplatin and 5 mU neuraminidase (AUS); plate 4: DMEM containing 5 mU neuraminidase.
# After one hour incubation at 37 degree C., 5% CO2, the media of different treatments were removed from the wells. Cells were then washed with DMEM and was replaced by fresh DMEM, 10% FBS. Incubation continued for about two more weeks for the colonies to appear. […]
# [3] = system: 2008/C13*5.25; test: Cisplatin resistance (IC-50) of resistant sub-line versus parental line
# From the text: (§1) Three isogenic pairs of sensitive and multidrug resistant phenotypes of human ovarian carcinoma cell lines were studied. […] The morphology of the resistant cells differed from the sensitive isotypes, consistent with the cell surface molecular modifications.
# [4] = system: A2780/CP; test: as above
# From the text: as §1
# [5] = system: IGROV-1/CP; test: as above; details: IGROV-1/CP versus parental IGROV-1
# From the text: as §1
structure (smiles),measurement,setting,value
"N.N.[Cl][Pt][Cl] [cisplatin, Dichlorodiaminocisplatin]",cell growth / colony formation relative to control (plate #1 = 100% growth),[1],about 80 % of the control
same,colony formation (in words),[2],almost no real colony formed
same,fold increase in IC-50 to cisplatin resistance,[3]; 2008/C13*5.25 versus parental 2008,10.4 fold
same,IC50,"[3]; resistant cells, the concentration used in the colony assay",25 µM
same,fold increase in IC-50 to cisplatin resistance,[4],6.9 fold
same,fold increase in IC-50 to cisplatin resistance,[5],7.6 fold
